Experimental data as given in patent publication EP4741395A1, “NOVEL COMPOUND SENSITIVE TO NITROGEN MONOXIDE AND PHARMACEUTICAL COMPOSITION COMPRISING SAME” (Omniamed Co. Ltd, priority 2023, dated 2025).

Experiments:
Raw 264.7 cell line = assay: NO scavenging activity in LPS-treated immune cells (Griess reagent); type: cell-based; settings: 24 hours; for activity at 10 µM: Mus musculus, RAW264.7, Raw 264.7, LPS 500 ng/mL, read-out: NO Scavenging Activity (%) (Mean±SD)
Experimental: Raw 264.7 cell line was seeded in a 48-well plate at a density of 8×10^4 cells/well, and cultured at 37°C in a DMEM medium including 10% FBS, 100 U/mL of penicillin and 100 µg/mL of streptomycin.
The medium was cultured overnight, and then replaced with a fresh medium including 10 µM of the pharmaceutical composition sensitive to nitrogen monoxide including the compound of each of Examples 1 to 30 and 500 ng/mL of LPS, and the fresh medium was cultured again for another 24 hours.
Lastly, in order to measure the amount of NO produced, the amount of NO2^- present in the cell culture medium was measured using a Griess reagent (sulfanilamide, N-1-naphthylethylenediamine dihydrochloride). Specifically, 100 µL of a Griess reagent was mixed with a mixture solution of 50 µL of the cell culture medium and 50 µL of PBS. The mixture solution was reacted for 10 minutes in a well plate, and absorbance thereof at 540 nm was measured.

[1] = DAF-2 assay of NO scavenging activity (NO donor SNAP); type: biochemical; settings: DAF-2 10 µM, SNAP 100 µM, PBS, 3 hours, 37°C
Experimental: NO scavenging activity of the pharmaceutical composition sensitive to nitrogen monoxide including the compound according to each of Examples 1 to 22, 29 to 31, and 33 to 35 was evaluated through a DAF-2 assay.
Specifically, a reagent stock solution was made using DMSO (dimethyl sulfoxide) in order to prepare 5 mM of DAF-2, 100 mM of SNAP and 5 mM of the compound synthesized in each of the Examples, and for the reaction, the solution was added to a PBS (phosphate buffered saline) solution so that DAF-2, SNAP and the compound had final concentrations of 10 µM, 100 µM and the concentration of Table 1, respectively, followed by a reaction for 3 hours in a 37°C incubator.

[2] = DAF-2 assay of NO scavenging activity without and with H2O2 (ROS); type: biochemical; settings: SNAP 100 µM, DAF-2 10 µM, 3 hours, 37°C; for NO Scavenging Activity (%) (Mean±SD) With H2O2: H2O2 1 mM
Experimental: The pharmaceutical composition sensitive to nitrogen monoxide including the compound according to each of Examples 23 to 28 and 32 may have scavenging activity for reactive oxygen species (ROS). NO scavenging activity of the pharmaceutical composition was evaluated through a DAF-2 assay.
Specifically, to a 100 µM solution of SNAP, the compound synthesized in each of the Examples was added at a concentration of the following Table 2, and reacted. Then 10 µM of DAF-2 was added thereto, followed by a reaction for 3 hours in a 37°C incubator.
Additionally, a stock solution of H2O2 (10 M) was added to the reaction solution so that SNAP and H2O2 had final concentrations of 100 µM and 1 mM, respectively. Then, the compound synthesized in each of the Examples was added thereto at a concentration of the following Table 11, followed by a reaction in the same manner, and NO scavenging activity was calculated by Equation 1.

COc1ccc(NC(=O)n2ccc3c(N(C)[C@H]4CN(C(=O)CC#N)CC[C@H]4C)ncnc32)c(N)c1 [Example 6, N-(2-amino-4-methoxyphenyl)-4-(((3R,4R)-1-(2-cyanoacetyl)-4-methylpiperidin-3-yl)(methyl)amino)-7H-pyrrolo[2,3-d]pyrimidine-7-carboxamide]
activity at 10 µM (Raw 264.7 cell line): 68.5 ± 0.11%

COc1ccc(N)c(NC(=O)n2ccc3c(N(C)[C@H]4CN(C(=O)CC#N)CC[C@H]4C)ncnc32)c1 [Example 7, N-(2-amino-5-methoxyphenyl)-4-(((3R,4R)-1-(2-cyanoacetyl)-4-methylpiperidin-3-yl)(methyl)amino)-7H-pyrrolo[2,3-d]pyrimidine-7-carboxamide]
activity at 10 µM (Raw 264.7 cell line): 88.2 ± 0.06%

C[C@@H]1CCN(C(=O)CC#N)C[C@@H]1N(C)c1ncnc2c1ccn2C(=O)Nc1ccc(O)cc1N [Example 8, N-(2-amino-4-hydroxyphenyl)-4-(((3R,4R)-1-(2-cyanoacetyl)-4-methylpiperidin-3-yl)(methyl)amino)-7H-pyrrolo[2,3-d]pyrimidine-7-carboxamide]
activity at 10 µM (Raw 264.7 cell line): 72.6 ± 0.31%

C[C@@H]1CCN(C(=O)CC#N)C[C@@H]1N(C)c1ncnc2c1ccn2C(=O)Nc1cc(O)ccc1N [Example 9, N-(2-amino-5-hydroxyphenyl)-4-(((3R,4R)-1-(2-cyanoacetyl)-4-methylpiperidin-3-yl)(methyl)amino)-7H-pyrrolo[2,3-d]pyrimidine-7-carboxamide]
activity at 10 µM (Raw 264.7 cell line): 78.9 ± 0.21%

C[C@@H]1CCN(C(=O)CC#N)C[C@@H]1N(C)c1ncnc2c1ccn2C(=O)N(C)CCN(C)C(=O)Nc1ccccc1N [Example 14, N-(2-(3-(2-aminophenyl)-1-methylureido)ethyl)-4-(((3R,4R)-1-(2-cyanoacetyl)-4-methylpiperidin-3-yl)(methyl)amino)-N-methyl-7H-pyrrolo[2,3-d]pyrimidine-7-carboxamide]
activity at 10 µM (Raw 264.7 cell line): 46 ± 2.52%

COc1ccc(NC(=O)N(C)CCN(C)C(=O)n2ccc3c(N(C)[C@H]4CN(C(=O)CC#N)CC[C@H]4C)ncnc32)c(N)c1 [Example 17, N-(2-(3-(2-amino-4-methoxyphenyl)-1-methylureido)ethyl)-4-(((3R,4R)-1-(2-cyanoacetyl)-4-methylpiperidin-3-yl) (methyl)amino)-N-methyl-7H-pyrrolo[2,3-d]pyrimidine-7-carboxamide]
activity at 10 µM (Raw 264.7 cell line): 29.6 ± 2.95%

C[C@@H]1CCN(C(=O)CC#N)C[C@@H]1N(C)c1ncnc2c1ccn2C(=O)N(C)CCN(C)C(=O)Nc1ccc(O)cc1N [Example 19, N-(2-(3-(2-amino-4-hydroxyphenyl)-1-methylureido)ethyl)-4-(((3R,4R)-1-(2-cyanoacetyl)-4-methylpiperidin-3-yl) (methyl)amino)-N-methyl-7H-pyrrolo[2,3-d]pyrimidine-7-carboxamide]
activity at 10 µM (Raw 264.7 cell line): 54.1 ± 2.51%

CC[C@@H]1CN(C(=O)NCC(F)(F)F)C[C@@H]1c1cnc2cnc3c(ccn3C(=O)Nc3cc4c(cc3N)n(C)c(=O)n4C)n12 [Example 31, N-(6-amino-1,3-dimethyl-2-oxo-2,3-dihydro-1H-benzo[d]imidazol-5-yl)-8-((3R,4S)-4-ethyl-1-((2,2,2-trifluoroethyl)carbamoyl)pyrrolidin-3-yl)-3H-imidazo[1,2-a]pyrrolo[2,3-e]pyrazine-3-carboxamide]
NO Scavenging Activity (%) (Mean±SD) ([1]; compound 1 µM): 79.61 ±3.60% | NO Scavenging Activity (%) (Mean±SD) ([1]; compound 5 µM): 90.34 ±0.98% | NO Scavenging Activity (%) (Mean±SD) ([1]; compound 10 µM): 92.21 ±0.98%

CC[C@@H]1CN(C(=O)NCC(F)(F)F)C[C@@H]1c1cnc2cnc3c(ccn3C(=O)Nc3cc4c(cc3NC(=O)OCc3ccc(B(O)O)cc3)n(C)c(=O)n4C)n12 [Example 32, (4-((((6-(8-((3R,4S)-4-ethyl-1-((2,2,2-trifluoroethyl)carbamoyl)pyrrolidin-3-yl)-3H-imidazo[1,2-a]pyrrolo[2,3-e]pyrazine-3-carboxamido)-1,3-dimethyl-2-oxo-2,3-dihydro-1H-benzo[d]imidazol-5-yl)carbamoyl)oxy)methyl)phenyl)boronic acid]
NO Scavenging Activity (%) (Mean±SD) Without H2O2 ([2]; compound 1 µM): 6.42± 10.86% | NO Scavenging Activity (%) (Mean±SD) With H2O2 ([2]; compound 1 µM): 4.05± 3.57% | NO Scavenging Activity (%) (Mean±SD) Without H2O2 ([2]; compound 5 µM): 6.84± 5.21% | NO Scavenging Activity (%) (Mean±SD) With H2O2 ([2]; compound 5 µM): 29.92 ±7.09% | NO Scavenging Activity (%) (Mean±SD) Without H2O2 ([2]; compound 10 µM): 9.26± 5.51% | NO Scavenging Activity (%) (Mean±SD) With H2O2 ([2]; compound 10 µM): 32.06 ±3.99%

CC1CC2C3CCC4=CC(=O)C=CC4(C)C3(F)C(O)CC2(C)C1(O)C(=O)COC(=O)Nc1ccccc1N (centres unmarked) [Example 33, 2-(9-fluoro-11,17-dihydroxy-10,13,16-trimethyl-3-oxo-6,7,8,9,10,11,12,13,14,15,16,17-dodecahydro-3H-cyclopenta[a]phenanthren-17-yl)-2-oxoethyl (2-aminophenyl) carbamate]
NO Scavenging Activity (%) (Mean±SD) ([1]; compound 1 µM): 2.22± 4.76% | NO Scavenging Activity (%) (Mean±SD) ([1]; compound 5 µM): 1.72± 4.28% | NO Scavenging Activity (%) (Mean±SD) ([1]; compound 10 µM): 1.52± 10.22%

Cc1ccc(NC(=O)OCC(=O)C2(O)C(C)CC3C4CCC5=CC(=O)C=CC5(C)C4(F)C(O)CC32C)c(N)c1 (centres unmarked) [Example 34, 2-(9-fluoro-11,17-dihydroxy-10,13,16-trimethyl-3-oxo-6,7,8,9,10,11,12,13,14,15,16,17-dodecahydro-3H-cyclopenta[a]phenanthren-17-yl)-2-oxoethyl (2-amino-4-methylphenyl) carbamate]
NO Scavenging Activity (%) (Mean±SD) ([1]; compound 10 µM): 0.76± 5.81%

N-(2-(3-(2-amino-5-hydroxyphenyl)-1-methylureido)ethyl)-4-(((1S,2R)-5-(2-cyanoacetyl)-2-methylcyclohexyl) (methyl)amino)-N-methyl-7H-pyrrolo[2,3-d]pyrimidine-7-carboxamide [Example 20]
NO Scavenging Activity (%) (Mean±SD) (Raw 264.7 cell line; 10 µM, Raw 264.7, LPS 500 ng/mL): 59.5±0.11%

cyanocobalamin [Vitamin B12, reference compound]
NO Scavenging Activity (%) (Mean±SD) ([1]; compound 1 µM): 3.18± 1.03% | NO Scavenging Activity (%) (Mean±SD) ([1]; compound 5 µM): 8.98± 2.46% | NO Scavenging Activity (%) (Mean±SD) ([1]; compound 10 µM): 12.37 ±3.73% | NO Scavenging Activity (%) (Mean±SD) ([1]; compound 100 µM): 41.09 ±1.57% | NO Scavenging Activity (%) (Mean±SD) ([1]; compound 1,000 µM): 99.48 ±0.95%
